Four compounds from patent publication US20240254175A1, “NOVEL SELECTIVE ANT[…] PEPTIDES” (BOMBI BIOMICS BV, priority 2021, published 2024) can be followed below.

The subject of data set [1] is human erythrocytes. The protocol:
A hemolytic assay was performed as previously described by Zelezetsky et al.. Freshly drawn human erythrocytes were rinsed three times with phosphate buffered saline (PBS) and resuspended in PBS to 4% (v/v). […] PBS and 0.1% (v/v) Triton-X 100 were used as 0% and 100% hemolytic control respectively. Plates were incubated at 37° C. for 1 hour.
Subsequently, the plate was centrifuged and the supernatant was transferred to a new plate. The release of hemoglobin in the supernatant was monitored at absorbance of 450 nm using an Infinite M1000 Microplate reader (Tecan). Results were pooled from three independent experiments and expressed as mean±SD. HC10 and HC50 were defined as the peptide concentrations causing 10% and 50% hemolysis on human erythrocytes, respectively.

For data set [2], the system named is other bacteria tested (C. granulosum, C. avidum, S. aureus, S. epidermis, C. striatum). Description: In vitro killing assay on the other (non C. acnes) bacteria. It counts as cell-based. The protocol:
Inoculi of mid-log phase bacteria were prepared by incubating the above isolated colonies from blood agar plates in Tryptic Soy Broth (TSB) medium (Becton Dickinson, Le Pont de Clax, France) for 2.5 hours and then diluted to the concentration needed.
For the in vitro killing assay on mid-log phase bacteria, each of the above strains were resuspended to a concentration of 1×10^6 bacteria/ml in phosphate buffered saline (PBS). Subsequently, 200 μl was added to a concentration range of peptides Wildtype BLP-7, BMBN-1, BMBN-2, BMBN-3, BMBN-4, BMBN-5, BMBN-6, and BMBN-7 that were lyophilized in advance. Subsequently, the bacteria-peptide mixtures were incubated for 1 hour at 37° C. To establish the killing capacity and specificity of these peptides, the suspensions were serially diluted and plated onto DST agar plates to measure viable CFU counts. IC90, IC99 and IC99.9 values were calculated by linear regression analysis. […] Results were pooled from 4 independent experiments concerning the above C. acnes strains (FIG. 2B) and 5 independent experiments concerning the other non C. acnes related strains (FIG. 2B continued). The results are expressed as mean±standard deviation (SD).

For data set [3], the system named is C. acnes biofilm. To be noted: strains with the strongest C. acnes biofilm formation ability.
Procedure: Briefly, 250 μl of bacterial cells (1×10^6 CFU/ml) of 10 strains (C. acnes 3, 4, 23, 25, 55, 61, 62, 63, 68, 78) (FIG. 9) with the strongest biofilm formation ability were inoculated in a Greiner polyethylene 96well plate (Sigma Aldrich); TSB culture medium containing no bacteria was used as the blank control, and the plate was incubated at 37° C. for 24 hours. The culture medium was subsequently removed, and wells were carefully washed with PBS three times to remove C. acnes bacteria.
Subsequently, 250 μl of TSB culture medium containing the aforementioned polypeptides in serial doubling dilutions was added to each well. TSB medium without any of the polypeptides was used as a negative control, and plates were incubated at 37° C. for 24 hours. If OD600<0.1, there was no bacterial growth, and the lowest concentration without bacterial growth at this time point was recorded; this is the Minimum Biofilm Inhibitory Concentration (MBIC). Then, the cells and polypeptides in the 96-well cell culture plate were washed with PBS, and 250 μl of TSB culture medium was added to each well.
The plates were incubated at 37° C. for 24 hours to re-grow the surviving biofilm bacteria. […] The lowest concentration at which no bacterial growth was recorded is the minimal biofilm eradication concentration (MBEC).

Non-standard residues stand in square brackets, D forms with d. Residues, ends and D or L forms follow the SMILES beside them. No end group written: not given here. *: point of attachment. Palmitoyl = CCCCCCCCCCCCCCCC(=O)*

“GIGGALLSAGKSALKGLAKGLAEHFAN-NH2 [Wildtype BLP-7, reference compound]”: the “hemolytic activity (in words)” value in data set [1] is listed as “within the range of negligible hemolytic activity”. With `CCCCCCCCCCCCCCCC(=O)N[C@@H](CCC(=O)O)C(=O)N[C@@H](CCCNC(=N)N)C(=O)N[C@@H](CC(N)=O)C(=O)N[C@@H](CC(N)=O)C(=O)N[C@@H](Cc1ccccc1)C(=O)NCC(=O)NCC(=O)NCC(=O)N[C@H](CC(N)=O)C(=O)N[C@H](C)C(=O)N[C@H](Cc1ccccc1)C(=O)N[C@H](Cc1c[nH]cn1)C(=O)N[C@H](CCC(=O)O)C(=O)N[C@H](C)C(=O)N[C@H](CC(C)C)C(=O)NCC(=O)N[C@H](CCCCN)C(=O)N[C@H](C)C(=O)N[C@H](CC(C)C)C(=O)NCC(=O)N[C@H](CCCCN)C(=O)N[C@H](CC(C)C)C(=O)N[C@H](C)C(=O)N[C@H](CO)C(=O)N[C@H](CCC(=O)O)C(=O)NCC(=O)N[C@H](C)C(=O)N[C@H](CO)C(=O)N[C@H](CC(C)C)C(=O)N[C@H](CC(C)C)C(=O)N[C@H](C)C(=O)NCC(=O)NCC(=O)N[C@@H](C(=O)NCC(N)=O)[C@H](C)CC` [BMBN-6] (Palmitoyl-ERNNFGGG[dN][dA][dF][dH][dE][dA][dL]G[dK][dA][dL]G[dK][dL][dA][dS][dE]G[dA][dS][dL][dL][dA]GG[dI]G-NH2), the “effect on other, untargeted bacteria / specificity towards C. acnes (in words)” value in data set [2] was “specificity towards C. acnes only negligibly decreased”.

Turning to `CCCCCCCCCCCCCCCC(=O)N[C@H](CCC(=O)O)C(=O)N[C@H](CCCNC(=N)N)C(=O)N[C@H](CC(N)=O)C(=O)N[C@H](CC(N)=O)C(=O)N[C@H](Cc1ccccc1)C(=O)NCC(=O)NCC(=O)NCC(=O)NCC(=O)N[C@@H](C(=O)NCC(=O)NCC(=O)N[C@H](C)C(=O)N[C@H](CC(C)C)C(=O)N[C@H](CC(C)C)C(=O)N[C@H](CO)C(=O)N[C@H](C)C(=O)NCC(=O)N[C@H](CCC(=O)O)C(=O)N[C@H](CO)C(=O)N[C@H](C)C(=O)N[C@H](CC(C)C)C(=O)N[C@H](CCCCN)C(=O)NCC(=O)N[C@H](CC(C)C)C(=O)N[C@H](C)C(=O)N[C@H](CCCCN)C(=O)NCC(=O)N[C@H](CC(C)C)C(=O)N[C@H](C)C(=O)N[C@H](CCC(=O)O)C(=O)N[C@H](Cc1c[nH]cn1)C(=O)N[C@H](Cc1ccccc1)C(=O)N[C@H](C)C(=O)N[C@H](CC(N)=O)C(N)=O)[C@H](C)CC` [BMBN-7] (Palmitoyl-[dE][dR][dN][dN][dF]GGGG[dI]GG[dA][dL][dL][dS][dA]G[dE][dS][dA][dL][dK]G[dL][dA][dK]G[dL][dA][dE][dH][dF][dA][dN]-NH2), in data set [1], the “hemolytic activity (in words)” value is “negligible hemolytic activity”. Moreover, the “MBIC (concentration that inhibits the biofilm)” value in data set [3] lay in the range of 56 to 117 µg/mL. On to `CCCCCCCCCCCCCCCC(=O)NCC(=O)N[C@H](C(=O)NCC(=O)NCC(=O)N[C@@H](C)C(=O)N[C@@H](CC(C)C)C(=O)N[C@@H](CC(C)C)C(=O)N[C@@H](CO)C(=O)N[C@@H](C)C(=O)NCC(=O)N[C@@H](CCCCN)C(=O)N[C@@H](CO)C(=O)N[C@@H](C)C(=O)N[C@@H](CC(C)C)C(=O)N[C@@H](CCCCN)C(=O)NCC(=O)N[C@@H](CC(C)C)C(=O)N[C@@H](C)C(=O)N[C@@H](CCCCN)C(=O)NCC(=O)N[C@@H](CC(C)C)C(=O)N[C@@H](C)C(=O)N[C@@H](CCC(=O)O)C(=O)N[C@@H](Cc1c[nH]cn1)C(=O)N[C@@H](Cc1ccccc1)C(=O)N[C@@H](C)C(=O)N[C@@H](CC(N)=O)C(N)=O)[C@@H](C)CC` [BMBN-1] (Palmitoyl-GIGGALLSAGKSALKGLAKGLAEHFAN-NH2), for which, in data set [3], the “MBEC (concentration that eradicates the biofilm)” value lay in the range of 235 to 496 µg/mL.
